Reference: patent publication US12493045B2, “Multi-target crosslinkers and uses thereof” (The Regents of the University of California, priority 2018, dated 2025)
Positions count from the first letter of the chain named.

Columns and labels:
[1] = test system: SSB-19(3×) or SSB-ATC(4×) complex; assay: SSB protein-DNA oligo crosslinking (denaturing TBE-urea gel shift); type: biochemical; details: 19(3×) or ATC(4×) DNA, 1 mM crosslinker, UV 365 nm 15 min
peptide 7KR (Ac-AAAKAAR) = assay: Reaction of crosslinker with model peptide 7KR (mass spectra); type: biochemical; details: 10 μM peptide, 10 μM crosslinker, PBS pH 7.5, RT 1 h
Text: Reaction of NHSF with Model Peptide. We first tested the reactivity of NHSF with a model peptide (Ac-AAAKAAR (SEQ ID NO:1), 7KR) with a single Lys as a reactive group, and compared its reactivity towards BS2G (bis(sulfosuccinimidyl) 2,2,4,4-glutarate-d4, FIG. 2A), a commercial NHS-based homo-bifunctional crosslinker of similar length. […] Owing to the low reactivity of sulfonyl-fluorides and the lack of reactive groups in 7KR, additional reaction was not observed with the Arg sidechain.
Peptide and protein cross-linking.

[2] = biological target: Bovine Serum Albumin (BSA) (Bos taurus, UniProt P02769); assay: CXMS analysis of cross-linked BSA
Method: NHSF Cross-links Bovine Serum Albumin.
BSA: In a 20 μL reaction, 10 μM BSA (69 kDa, in PBS buffer, pH 7.5) was cross-linked at RT for 1 h with 1 mM BS2G or 1 mM NHSF, which corresponded to a 1:100 protein:cross-linker molar ratio. BS2G cross-linking reaction was terminated at RT by adding 20 mM ammonium bicarbonate and incubating for 20 min. NHSF cross-linking reaction was terminated at RT by adding 10 mM Dithiothreitol (DTT) and incubating for 20 min.
Protein digestion. All protein samples were precipitated by six volumes of acetone at −20° C. for 30 min. Precipitated proteins were dried in air and resuspended in 8 M urea, 100 mM Tris, pH 8.5. After reduction with 2 mM DTT for 20 min and alkylation with 10 mM iodoacetamide for 15 min in the dark, samples were diluted to 2 M urea with 100 mM Tris, pH 8.5, and digested with trypsin (at 50:1 protein:enzyme ratio) at 37° C. for 16 h. Digestion was stopped by adding formic acid to 5% final concentration, and digested peptides were desalted with stagetip.
Tandem mass spectrometric analysis. Mass spectrometry experiments were performed using an Orbitrap Fusion Lumos™ instrument (ThermoFisher, San Jose, CA) coupled with an UltiMate™ 3000 nano LC. Mobile phase A and B were water and acetonitrile, respectively, with 0.1% formic acid. […]

[3] = test system: E. coli whole cell lysate; assay: CXMS analysis of cross-linked E. coli whole cell lysate; details: 10 mg/mL lysate, 40 mM crosslinker, RT 2 h
Method: To determine whether NHSF could be used in complex biological samples to generate novel cross-links for MS identification, we applied BS2G and NHSF on E. coli whole cell lysate.
Preparation of E. coli cell lysate. DH10β bacterial cells were cultured overnight. After cells were harvested by centrifugation, cell pellets were washed twice with PBS. Cells were resuspended with lysis buffer (50 mM Hepes, pH 8.3, 150 mM NaCl, 1×EDTA-free Complete Protease Inhibitor Cocktail) and incubate with lysozyme (1 mg/mL), DNase I (0.5 mg/mL) and RNase A (0.1 mg/mL) at 4° C. for 30 min. Cell lysates were sonicated for 3 min with 30% energy and filtrated with Amicon-0.5 ml 10K unit for 3 times.
Peptide and protein cross-linking. […] E. coli cell lysate: 20 uL lysate (10 mg/mL protein, 50 mM Hepes, pH 8.3, 150 mM NaCl) was incubate with 40 mM BS2G or 40 mM NHSF at RT for 2 h. BS2G cross-linking reaction was terminated at RT by adding 100 mM ammonium bicarbonate and incubating for 20 min. NHSF cross-linking reaction was terminated at RT by adding 100 mM DTT and incubating for 20 min.
Protein digestion. All protein samples were precipitated by six volumes of acetone at −20° C. for 30 min. Precipitated proteins were dried in air and resuspended in 8 M urea, 100 mM Tris, pH 8.5. […]

[4] = biological target: T1, Glutathione S-Transferase (GST) (Escherichia coli, UniProt P0A9D2); assay: Cross-linking of GST (SDS-PAGE, Western blot, CXMS)
T1 sequence (P0A9D2 1-201): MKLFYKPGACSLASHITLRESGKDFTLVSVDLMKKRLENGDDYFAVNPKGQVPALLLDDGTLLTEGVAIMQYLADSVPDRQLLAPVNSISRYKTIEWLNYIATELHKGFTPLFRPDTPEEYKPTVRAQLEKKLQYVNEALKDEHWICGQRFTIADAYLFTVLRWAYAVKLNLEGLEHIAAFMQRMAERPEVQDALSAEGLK
Method: NHSF Cross-links Glutathione S-Transferase. To further validate the cross-linking specificity of NHSF, the homodimeric Glutathione S-Transferase (GST) was cross-linked by NHSF or BS2G.
Peptide and protein cross-linking. […] BS2G cross-linking reaction was terminated at RT by adding 20 mM ammonium bicarbonate and incubating for 20 min. NHSF cross-linking reaction was terminated at RT by adding 10 mM Dithiothreitol (DTT) and incubating for 20 min. GST: In a 20 μL reaction, 10 μM GST (23 kDa, in PBS buffer, pH 7.5) was cross-linked at RT for 1 h with 0.5 mM BS2G or 0.5 mM NHSF, which corresponded to a 1:50 protein:cross-linker molar ratio. The cross-linking reactions were similarly terminated as described in the BSA section above.

[5] = biological target: epidermal growth factor receptor (EGFR) (Homo sapiens, UniProt P00533); assay: Crosslinking of overexpressed EGFR on HEK293T cells (Western blot); details: HEK293T overexpressing EGFR, 4 mM NHQM, UV 365 nm 15 min
Method: We subsequently tested NHQM's crosslinking ability in mammalian cells. […] Therefore, we tested using NHQM to crosslink proteins on mammalian cell surfaces.
Plasmid pCDNA3.1-14-3-3, pCDNA3.1-GST, or pCDNA3.1-EGFR (2 μg each) was transfected into one well of 6-well plate of HEK293T cells, respectively. After transfection, the cells were cultured at 37° C. for additional 24 hr. The cells were harvested and washed with PBS, pH 7.4 for one time, followed by resuspension in 50 μL PBS, pH 7.4. The cells were either added nothing or added with 4 mM NHQM and incubated at RT for 15 min. Then the cells were illuminated with or without UV at wavelength 365 nm for another 15 min. After that, the reaction was treated by adding 100 mM Tris-HCI, pH 7.5 and incubated at RT for 15 min. The samples were then quickly treated with 2×SDS loading dye containing 100 mM DTT, boiled at 95° C. for 5 mins, and analyzed by running Western blot using an anti-His antibody.

[6] = biological target: glutathione transferase (GST) expressed in HEK 293T cells (Escherichia coli, UniProt P0A9D2); assay: GST crosslinking in mammalian cells (Western blot); type: cell-based; details: 4 mM NHQM, UV 365 nm 15 min
[7] = biological target: T2, 14-3-3 QQR mutant in E. coli cell lysate (Homo sapiens, UniProt P63104, A13Q/E14R/L12Q); assay: Crosslinking of 14-3-3 QQR mutant in E. coli cell lysate (Western blot); type: biochemical
T2 construct: expressed in transfected cells; host or cells: E. coli, cell lysate
T2 sequence (P63104 1-245 L12Q/A13Q/E14R): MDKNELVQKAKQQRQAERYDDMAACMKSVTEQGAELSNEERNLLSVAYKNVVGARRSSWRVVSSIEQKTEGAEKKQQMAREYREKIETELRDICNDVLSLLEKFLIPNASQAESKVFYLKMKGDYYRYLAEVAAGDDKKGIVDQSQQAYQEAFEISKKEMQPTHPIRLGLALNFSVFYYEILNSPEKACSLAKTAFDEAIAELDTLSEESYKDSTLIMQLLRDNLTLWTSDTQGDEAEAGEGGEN
Text: (§1) Following crosslinking, NHQM results in a short and rigid linkage, which requires close contact of target residue pairs for effective crosslinking. We therefore tested whether this feature of NHQM could be used to readily determine protein dimerization in vitro and in cell lysates. It has been reported that three mutations (^12LAE^14→^12QQR^14) of 14-3-3 disrupt the dimer interface to form a monomer, leading to a distinct function from WT 14-3-3, such as chaperone activity.^[17] [18] However, previously the 14-3-3(QQR) mutant was isolated from cells and then characterized as a monomer using size exclusion chromatography. This in vitro process is tedious, and the results may not represent what occur in the cellular environment. We first treated purified 14-3-3 WT and QQR mutant with various amounts of NHQM and illuminated with UV light of 365 nm (FIGS. 9A-9B). […] We then applied NHQM directly to cell lysates of E. coli cells expressing either 14-3-3 WT or its QQR mutant, without isolating the 14-3-3 proteins.

14-3-3(QQR) mutant = biological target: T3, 14-3-3(QQR) mutant (Homo sapiens, UniProt P63104, A13Q/E14R/L12Q); assay: Crosslinking of monomeric 14-3-3(QQR) mutant in vitro (SDS-PAGE); type: biochemical; details: 0-0.4 mM NHQM, UV 365 nm 15 min
T3 sequence (P63104 1-245 L12Q/A13Q/E14R): T2 sequence (P63104 1-245 L12Q/A13Q/E14R)
Text: as §1
(§2) Utilizing NHQM to differentiate 14-3-3 dimer versus monomer.

WT 14-3-3 protein = biological target: T4, WT 14-3-3 protein (Homo sapiens, UniProt P63104); assay: Tandem MS (CXMS) of crosslinked 14-3-3; type: biochemical
T4 sequence (P63104 1-245): T2 sequence (P63104 1-245 L12Q/A13Q/E14R) with Q12L, Q13A, R14E
Method: Tryptic digestion of cross-linked proteins. Protein digestion was carried out by following a procedure described previously.^[28] Briefly, after crosslinking protein samples were quenched by adding 100 mM Tris-HCI, pH 7.4 for 15 min. […] Protein was collected by centrifugation for 10 min at 15,000 g. […] Digestion was terminated by adding formic acid at final concentration 5% (v/v). Digested peptides were desalted with C18 ZipTip, and eluted peptides were dried down with SpeedVac.
Mass spectrometry. Digested peptides were dissolved in 200 mM NH4HCO3 after clean-up and then subject to tandem mass spectrometry on a Thermo Q-Exactive Orbitrap. Crosslinked peptides. Peptides were separated by nano-LC Ultimate 3000 high-performance liquid chromatography system using an Acclaim PepMap C18 column (Thermo Scientific). […] The Q-Exactive mass spectrometer was operated in data-dependent mode with one full MS scan at R=70,000 (m/z=200) followed by ten HCD MS/MS scans at R=17,500 (m/z=200) using a stepped normalized collision energy of 28, 30, 35 eV. The AGC targets for the MS1 and MS2 scans were 3×10^6 and 1×10^5, respectively, and the maximum injection time for MS1 was 250 ms, and for MS2 was 200 ms. Precursors of the +1, +6 or above, or unassigned charge states were rejected; exclusion of isotopes was enabled; dynamic exclusion was set to 30 s. The crosslinking mass spectra were analyzed with pLink 2.3.^[29]

[8] = test system: SSB protein with viral M13mp18 DNA; assay: SSB protein-M13mp18 DNA crosslinking (denaturing TBE-urea gel shift); type: biochemical; details: 1 mM NHQM, UV 365 nm 15 min
Method: that are reported to interact with SSB^[24] [25] The SSB-DNA complex was treated with NHQM and UV activation, and analyzed by denaturing TBE-urea gel shift assay to detect covalent crosslinking between SSB and DNA. […] We further investigated protein-DNA crosslinking by incubating a natural single stranded circular viral DNA M13mp18 with the SSB protein.^[26] As shown in FIG. 21B (also FIGS. 22A-22B), the M13mp18 control DNA run as two isoforms in the denatured TBE-Urea gel due to its large size, a major form remained in the well and a minor form migrating in the gel.

[9] = biological target: endogenous EGFR in MCF7 cells (Homo sapiens, UniProt P00533); assay: Crosslinking of endogenous EGFR on mammalian cell surface (Western blot); type: cell-based; details: BS^3 as positive control
[10] = biological target: T5, 14-3-3 WT in E. coli cell lysate (Homo sapiens, UniProt P63104); assay: Crosslinking of 14-3-3 WT in E. coli cell lysate (Western blot); type: biochemical
T5 sequence (P63104 1-245): T2 sequence (P63104 1-245 L12Q/A13Q/E14R) with Q12L, Q13A, R14E
Text: as §1

[11] = biological target: T6, 14-3-3 protein (WT homodimer) (Homo sapiens, UniProt P63104); assay: Dimeric crosslinking of 14-3-3 WT in vitro (SDS-PAGE); type: biochemical
T6 sequence (P63104 1-245): T2 sequence (P63104 1-245 L12Q/A13Q/E14R) with Q12L, Q13A, R14E
Text: We initially designed and synthesized a heterobifunctional crosslinker NHQM containing an NHS ester and a photocaged ortho-quinone methide (o-QM) (FIG. 7A). Two fluorines were installed at the methyl group ortho to the phenolic hydroxyl group, which was photocaged by an o-nitrobenzyl group. When in proximity to proteins, the reactive NHS ester will react with exposed Lys residues, planting the photocaged o-QM next to residues on interaction partners. UV release of o-nitrobenzyl induces elimination of a fluoride ion to generate o-QM spontaneously, which will subsequently crosslink with nearby nucleophilic side chains (FIG. 7A). […] We further studied the crosslinking rate by varying the duration of UV treatment immediately after addition of NHQM.
as §1
NHQM mediated 14-3-3 crosslinking in vitro.
as §2
HoQM mediated 14-3-3 crosslinking in vitro.

Thioredoxin (Trx) = Thioredoxin (Trx) (Escherichia coli, UniProt P0AA25); details: 1 mM or 10 mM NHQM, UV 365 nm 15 min, E. coli cell lysate
Method: We started by testing NHQM's ability to crosslink interacting proteins in E. coli cell lysates. […] We expressed His-tagged Trx in E. coli cells, and then applied NHQM to the cell lysate followed by UV activation.
Plasmid pBAD-Trx was transformed into BL21(DE3) E. coli cells, and the Trx protein expression was carried out following procedures described above except that the cell culture volume was decreased to 20 mL. After protein expression, the cells were harvested and resuspended in 15 mL 50 mM sodium phosphate buffer containing 200 mM NaCI, pH 7.5. The cells were broken by sonification. 15 μL cell suspension were taken and added with 0, 1, or 10 mM NHQM and incubated at RT for 15 min, followed by UV illumination at wavelength 365 nm for another 15 min. The reaction was then treated by adding 100 mM Tris-HCI, pH 7.5 and incubated at RT for 15 min. The samples were then quickly treated with SDS loading dye containing 100 mM DTT, boiled at 95° C. for 5 min, and then analyzed with Western blot using anti-His antibody.

[12] = biological target: T7, 14-3-3 expressed in HEK293T cells (Homo sapiens, UniProt P63104); assay: 14-3-3 crosslinking in mammalian cells (Western blot); details: 4 mM NHQM, UV 365 nm 15 min
T7 sequence (P63104 1-245): T2 sequence (P63104 1-245 L12Q/A13Q/E14R) with Q12L, Q13A, R14E
Method: We subsequently tested NHQM's crosslinking ability in mammalian cells. We incubated NHQM with live mammalian cells expressing the dimeric glutathione transferase (GST)^[9] or 14-3-3. […] Therefore, we tested using NHQM to crosslink proteins on mammalian cell surfaces. […] In addition, we further explored whether NHQM could probe endogenous mammalian proteins at physiologically relevant conditions. With this aim, we cultured MCF7 cells and treated them with or without NHQM, with or without UV, using the amine-reactive crosslinker bissulfosuccinimidyl suberate (BS^3) as a positive control.
Plasmid pCDNA3.1-14-3-3, pCDNA3.1-GST, or pCDNA3.1-EGFR (2 μg each) was transfected into one well of 6-well plate of HEK293T cells, respectively. After transfection, the cells were cultured at 37° C. for additional 24 hr. The cells were harvested and washed with PBS, pH 7.4 for one time, followed by resuspension in 50 μL PBS, pH 7.4. […] The samples were then quickly treated with 2×SDS loading dye containing 100 mM DTT, boiled at 95° C. for 5 mins, and analyzed by running Western blot using an anti-His antibody.
Plasmid pCDNA3.1-14-3-3 (2 μg) was transfected into one well of 6-well plate of HEK293T cells. […] The samples were then quickly treated with 2×SDS loading dye containing 100 mM DTT, boiled at 95° C. for 5 min, and analyzed with Western blot using an anti-His antibody.

HEK293T cells = assay: Toxicity on incubation with HEK293T cells; type: cell-based, mammalian; details: 0.6 mM HoQM incubated for different time duration (4 or 8 hr)

Bovine Serum Albumin (BSA), sequence (P02769 25-607): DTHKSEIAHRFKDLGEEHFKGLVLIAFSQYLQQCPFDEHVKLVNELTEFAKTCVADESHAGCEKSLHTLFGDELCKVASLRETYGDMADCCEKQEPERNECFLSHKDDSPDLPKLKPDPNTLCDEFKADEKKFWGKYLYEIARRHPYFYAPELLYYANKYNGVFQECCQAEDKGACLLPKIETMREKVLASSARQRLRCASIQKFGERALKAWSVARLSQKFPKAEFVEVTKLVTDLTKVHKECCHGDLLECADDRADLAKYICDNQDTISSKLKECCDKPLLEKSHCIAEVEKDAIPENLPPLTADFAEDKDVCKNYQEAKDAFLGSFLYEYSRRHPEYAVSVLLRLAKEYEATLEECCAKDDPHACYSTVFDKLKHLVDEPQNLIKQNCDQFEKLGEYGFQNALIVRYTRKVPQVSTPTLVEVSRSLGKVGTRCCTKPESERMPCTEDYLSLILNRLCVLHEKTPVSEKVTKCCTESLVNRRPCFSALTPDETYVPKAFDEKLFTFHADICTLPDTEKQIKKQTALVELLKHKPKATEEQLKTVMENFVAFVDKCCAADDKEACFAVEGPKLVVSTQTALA
epidermal growth factor receptor (EGFR), sequence (P00533 25-1210): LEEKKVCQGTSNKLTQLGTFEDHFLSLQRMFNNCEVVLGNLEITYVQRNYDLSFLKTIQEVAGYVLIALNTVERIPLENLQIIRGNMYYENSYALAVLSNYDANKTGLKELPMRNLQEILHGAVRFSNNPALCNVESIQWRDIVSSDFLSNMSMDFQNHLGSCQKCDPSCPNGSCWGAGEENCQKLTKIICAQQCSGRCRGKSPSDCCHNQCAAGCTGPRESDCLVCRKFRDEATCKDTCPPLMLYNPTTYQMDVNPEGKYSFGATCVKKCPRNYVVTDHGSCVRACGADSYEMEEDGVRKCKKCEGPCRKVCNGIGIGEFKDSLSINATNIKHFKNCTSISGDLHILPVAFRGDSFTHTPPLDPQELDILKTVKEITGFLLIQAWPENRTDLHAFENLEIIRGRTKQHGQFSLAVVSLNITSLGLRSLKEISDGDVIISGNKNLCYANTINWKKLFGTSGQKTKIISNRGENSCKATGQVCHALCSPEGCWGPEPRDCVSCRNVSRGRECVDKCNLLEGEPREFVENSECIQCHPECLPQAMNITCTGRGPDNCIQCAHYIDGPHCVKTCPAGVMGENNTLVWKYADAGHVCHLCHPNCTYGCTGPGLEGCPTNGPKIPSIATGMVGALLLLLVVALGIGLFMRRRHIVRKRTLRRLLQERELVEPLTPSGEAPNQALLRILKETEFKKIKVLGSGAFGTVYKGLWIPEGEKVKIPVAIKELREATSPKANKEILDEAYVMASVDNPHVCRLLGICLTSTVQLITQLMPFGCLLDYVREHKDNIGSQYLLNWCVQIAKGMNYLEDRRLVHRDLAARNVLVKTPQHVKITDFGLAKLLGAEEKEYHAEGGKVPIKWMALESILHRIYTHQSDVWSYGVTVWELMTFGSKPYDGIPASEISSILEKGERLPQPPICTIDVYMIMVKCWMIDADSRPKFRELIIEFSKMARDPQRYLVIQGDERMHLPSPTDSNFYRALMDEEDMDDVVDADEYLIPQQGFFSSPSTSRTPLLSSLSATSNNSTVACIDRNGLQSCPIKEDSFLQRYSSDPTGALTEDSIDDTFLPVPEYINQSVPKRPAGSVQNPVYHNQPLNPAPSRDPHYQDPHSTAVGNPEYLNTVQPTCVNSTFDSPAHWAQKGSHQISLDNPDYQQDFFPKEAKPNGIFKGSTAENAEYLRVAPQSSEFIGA
endogenous EGFR in MCF7 cells, sequence (P00533 25-1210): as above
Thioredoxin (Trx), sequence (P0AA25 whole entry): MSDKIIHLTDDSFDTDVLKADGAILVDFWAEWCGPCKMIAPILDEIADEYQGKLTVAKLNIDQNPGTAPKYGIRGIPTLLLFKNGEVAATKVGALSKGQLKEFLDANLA

For O=C(CCCCCCC(=O)ON1C(=O)CC(S(=O)(=O)O)C1=O)ON1C(=O)CC(S(=O)(=O)O)C1=O (stereo not drawn) [BS^3, bissulfosuccinimidyl suberate, reference compound], the “SSB-DNA crosslinking (upshifted band)” value [1] was “did not result in SSB-DNA crosslinking”.
In the case of [2H]C([2H])(CC(=O)ON1C(=O)CC(S(=O)(=O)O)C1=O)C([2H])([2H])C(=O)ON1C(=O)CC(S(=O)(=O)O)C1=O (stereo not drawn) [BS2G, bis(sulfosuccinimidyl) 2,2,4,4-glutarate-d4], the “Products detected after reaction with peptide 7KR” value (peptide 7KR (Ac-AAAKAAR)) is reported as “both a mono-linked peptide as well as the cross-linked dimer”, the “Inter-peptide cross-links identified by MS” value ([2]; 10 μM BSA, 1 mM crosslinker, RT 1 h) is reported as 18 and the “Cross-linked peptides exceeding the distance limit” value ([2]; limit of 20 Å Cα-Cα, BSA structure PDB 3V03) is reported as “four”. For the same molecule, the Inter-linked peptides identified [3] was 106, the “Cross-linked peptides identified by MS” value ([4]; 10 μM GST, 0.5 mM crosslinker, RT 1 h) was 15 and the “Cross-links incompatible with the GST structure” value ([4]; out of 15 cross-links, PDB 1N2A) was 6.
With O=C(ON1C(=O)CCC1=O)c1ccc(OCc2ccccc2[N+](=O)[O-])c(C(F)F)c1 [NHQM] the “EGFR dimer on Western blot” value [5] was “EGFR dimer was detected”, the “Efficiency of dimeric crosslinking of GST in live mammalian cells” value [6] was under 10% and the “Dimeric crosslinking of 14-3-3 QQR mutant in cell lysate” value [7] was “not the QQR mutant”. The “SSB-DNA crosslinking (upshifted band)” value [1] was “upshifted band was only observed for the SSB-19(3×) or SSB-ATC(4×) complex treated with both NHQM and UV light”, the “Crosslinking of 14-3-3 QQR” value (14-3-3(QQR) mutant) was “remained a monomer even at NHQM concentration up to 0.4 mM” and the “Pairs of crosslinked peptides identified” value (WT 14-3-3 protein; crosslinked 14-3-3, tandem MS) was “Eight”. The “Residues crosslinked with Lys” value (WT 14-3-3 protein; crosslinked 14-3-3, tandem MS) was “Arg, Asn, Gln, Glu, Lys, or Ser”, the “Cα-Cα distance of the crosslink exceeding the limit” value (WT 14-3-3 protein; limit ~22 Å) was 23.7 Å and the “SSB-M13mp18 crosslinking (upshift of minor form)” value [8] was “only in the presence of both NHQM treatment and UV activation was the minor form of M13mp18 upshifted into the well”. The “Crosslinking efficiency of endogenous EGFR” value [9] was “comparable to the commercial crosslinker BS^3”, the “Dimeric crosslinking of 14-3-3 WT in cell lysate” value [10] was “crosslinked as dimer” and the “Crosslinked dimer of 14-3-3 WT versus crosslinker amount” value ([11]; 0-0.4 mM NHQM, UV 365 nm 15 min) was “increased with higher NHQM concentration”. The “UV exposure at which crosslinking of 14-3-3 could be observed” value ([11]; 1 mM NHQM, UV 365 nm, SDS-PAGE) was 1 min, the “Crosslinked dimer of 14-3-3” value ([11]; 1 mM crosslinker, with or without UV 365 nm, SDS-PAGE) was “detected only with addition of NHQM crosslinker and UV illumination” and the “Crosslinking of endogenous proteins to Trx” value (Thioredoxin (Trx)) was “many endogenous proteins were crosslinked to Trx”. The “Efficiency of dimeric crosslinking of 14-3-3 in live mammalian cells” value [12] was under 10%.
With O=C(c1ccc(OCc2ccccc2[N+](=O)[O-])c(C(F)F)c1)N1CCN(C(=O)c2ccc(OCc3ccccc3[N+](=O)[O-])c(C(F)F)c2)CC1 [HoQM] the “Toxicity to HEK293T cells” value (HEK293T cells) was “without apparent toxicity”.
